Reference: publication PMC6505672, “Conformational change of Sos-derived proline-rich peptide upon binding Grb2 N-terminal SH3 domain probed by NMR” (Scientific Reports, 2013)
Where “and” joins values, the source holds several entries; their conditions need not be identical. Equal entries are not always repeated.

Experiments:
[1] = molecular target: T1, Grb2 N-terminal SH3 (nSH3) domain (Homo sapiens, UniProt P62993); assay: Minor (cis Xaa-Pro) peaks in 1H-13Cα HSQC, Grb2 nSH3-bound state; assay type: physicochemical; conditions: PBS in 2H2O, 25°C
T1 construct: The plasmid to express the Grb2 nSH3 domain (residues 1–57) was constructed by using a pGEX-6P expression vector; GST (N, cleaved yes); made in house; host or cells: E. coli BL21 (DE3)
T1 sequence (P62993 1-57): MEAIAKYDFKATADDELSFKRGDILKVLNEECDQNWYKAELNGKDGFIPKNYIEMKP
Description: The relative intensities of the minor peaks with respect to the major peaks for these residues were 10% for Val1, 3% for Pro2, 14% for Pro4, 10% for Val5, and 6% for Pro6.
The buffer system for NMR experiments was PBS in ^2H2O. […] Data were processed using the NMRPipe/NMRDraw software package. Peak picking and spectral analysis were performed using the Sparky program. Conformational analyses based on chemical shifts were conducted using the Random Coil Index (RCI) program[19] on the web server (http://randomcoilindex.com/).

[2] = 13Cα CPMG relaxation dispersion of free VPP peptide (Grb2 nSH3 absent); assay type: physicochemical; conditions: 25°C
Description: The global exchange parameters of the exchange rate, kex; the fractional population of the minor state, Pb were calculated from the dispersion curves of Val5 and Arg8. Then, the chemical shift difference between two states, Δω; the target function of fitting error, χ^2; and the nonexchangeable contribution of R2,eff, R2,0 for each residue were calculated using the global exchange parameters based on a two-state exchange model. […] The kex values were slightly larger than the Δω values, indicating a fast or intermediate exchange process on the chemical shift time scale. The exchange rate kex is defined as kex = kon[P] + koff, where [P] is the concentration of the protein. […]
Two-dimensional ^1H-^13C correlated spectra were collected as series of data sets with CPMG frequencies (νCPMG) of 30, 60, 120, 180, 300, 450, and 600 Hz. […] Spectra were recorded as 62 × 600 complex points with a 2.6-s repetition delay and 32 scans for each increment. […]
Peak intensities of the ^13Cα relaxation dispersion data were quantified using the Sparky program. The transverse relaxation constant, R2,eff, for each νCPMG frequency was calculated as R2,eff = −ln(I(νCPMG)/I0)/Trelax, where I(νCPMG) is the peak intensity obtained for a given value of νCPMG and I0 is the peak intensity obtained when the CPMG block is omitted. […]

Grb2 nSH3 = conditions: single alanine substitution, ITC; cited from earlier work
[3] = design: method as in earlier work; conditions: free state, cited from earlier work
[4] = molecular target: T1, Grb2 N-terminal SH3 (nSH3) domain; assay: 13Cα CPMG relaxation dispersion of VPP peptide with Grb2 nSH3; assay type: binding
Description: Non-labelled VPP (10 mM) peptide mixed with 0.25 mM Grb2 nSH3 dissolved in ^2H2O solvent was subjected to ^13Cα relaxation dispersion experiments.
The global exchange parameters of the exchange rate, kex; the fractional population of the minor state, Pb were calculated from the dispersion curves of Val5 and Arg8. Then, the chemical shift difference between two states, Δω; the target function of fitting error, χ^2; and the nonexchangeable contribution of R2,eff, R2,0 for each residue were calculated using the global exchange parameters based on a two-state exchange model. […] The exchange rate kex is defined as kex = kon[P] + koff, where [P] is the concentration of the protein. In this experimental condition, [P] is assumed to be zero because the concentration of the ligand is much higher than that of the protein. Thus, kex = koff. The affinity of the ligand to the protein, i.e., Kd, is defined as Kd = koff/kon. If kon is diffusion-controlled, kon ~ 10^8 M^−1s^−1. […] However, as reported by Lundström et al. Cα and Cβ atoms of valine are simultaneously incorporated to the final products from [^13C-2]-glucose as a sole carbon source by using an E.coli expression system. Thus, isolated ^13Cα-selective labelled valine residues cannot be prepared for this experimental purpose.
Two-dimensional ^1H-^13C correlated spectra were collected as series of data sets with CPMG frequencies (νCPMG) of 30, 60, 120, 180, 300, 450, and 600 Hz. The constant-time relaxation delay Trelax was set to 66.7 ms. Spectra were recorded as 62 × 600 complex points with a 2.6-s repetition delay and 32 scans for each increment. The total experimental time was 24 h for both 600 and 500 MHz spectrometers.
Peak intensities of the ^13Cα relaxation dispersion data were quantified using the Sparky program. The transverse relaxation constant, R2,eff, for each νCPMG frequency was calculated as R2,eff = −ln(I(νCPMG)/I0)/Trelax, where I(νCPMG) is the peak intensity obtained for a given value of νCPMG and I0 is the peak intensity obtained when the CPMG block is omitted. The CPMG dispersion curves were fitted numerically as a two-state exchange model using an in-house program described elsewhere. The fitting calculation extracted the following terms as the global parameters: the exchange rate, kex; the fractional population of the minor state, Pb; and the residue specific parameters, including the magnitude of the chemical shift difference between two states, Δω; the target function of fitting error, χ^2; and the nonexchangeable contribution of R2,eff, R2,0.

[5] = molecular target: Sos-derived VPP peptide (Homo sapiens) (UniProt Q07889); conditions: cited from earlier work

Grb2 nSH3 (from UniProt P62993), sequence (P62993 1-58): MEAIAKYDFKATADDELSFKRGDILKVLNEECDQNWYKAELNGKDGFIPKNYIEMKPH

minor (cis) peaks in bound state [1] | population of the minor state (Pb), in percent ([4]; 10 mM peptide, 0.25 mM Grb2 nSH3, 25°C, bound population expected from sample 2.5%) | exchange rate, kex ([4]; global fit of Val5 and Arg8, two-state exchange model, 10 mM VPP peptide, 0.25 mM Grb2 nSH3, PBS in 2H2O, 25°C, 11.7 and 14.1 T, kex = koff assumed) [s⁻¹] | fractional population of the minor state, Pb ([4]; global fit of Val5 and Arg8, two-state model, 10 mM peptide, 0.25 mM Grb2 nSH3, 25°C, as fraction) | Δω ([4]; range over all residues, 13Cα, relaxation dispersion) | Δω ([4]; residue P3, 13Cα shift difference between two states from relaxation dispersion fit, 25°C) [ppm] | Δω ([4]; residue R8, 13Cα shift difference between two states from relaxation dispersion fit, 25°C) | Δω ([4]; residue R9, 13Cα shift difference between two states from relaxation dispersion fit, 25°C) [ppm] | Δω ([4]; residue R10, 13Cα shift difference between two states from relaxation dispersion fit, 25°C) [ppm] | Δω ([4]; residue V5, 13Cα shift difference between two states from relaxation dispersion fit, 25°C) | Δω ([4]; residues P4/P7 (overlapped), 13Cα shift difference between two states from relaxation dispersion fit, 25°C) [ppm] | Molecule | relaxation dispersion curves [2] | residues critical for interaction with Grb2 nSH3 (Grb2 nSH3) | PPII helix structure ([3]; NMR and circular dichroism) | minor (cis) conformation [3] [%] | significant relaxation dispersion ([4]; presence of Grb2 nSH3, 11.7 and 14.1 T, 25°C) | Kd [5] [µM]
lack of minor peaks in the bound state | ~ 2.6% | 1037.87 | 0.026 | 0–1.5 ppm | 0.09 ± 0.18 | 1.53 ppm and 1.53 ± 0.42 ppm | 0.23 ± 0.20 | 0.13 ± 0.17 | 1.47 ppm and 1.47 ± 0.52 ppm | 0.00 ± 0.16 | CC(C)C[C@H](NC(=O)[C@@H]1CCCN1C(=O)CN)C(=O)NCC(=O)N[C@@H](CO)C(=O)N[C@H](C(=O)N1CCC[C@H]1C(=O)N1CCC[C@H]1C(=O)N1CCC[C@H]1C(=O)N[C@H](C(=O)N1CCC[C@H]1C(=O)N1CCC[C@H]1C(=O)N[C@@H](CCCNC(=N)N)C(=O)N[C@@H](CCCNC(=N)N)C(=O)N[C@@H](CCCNC(=N)N)C(=O)O)C(C)C)C(C)C [VPP peptide] | the dispersion curves were flat | Pro3, Val5, Pro6, and Arg8 of the VPP peptide are critical for interaction with Grb2 nSH3 | ~ 60% | 9 | Significant dispersion was only observed for Val5 and Arg8 and not for the other residues | 
 |  |  |  |  |  |  |  |  |  |  | Grb2 nSH3 (from UniProt P62993) |  |  |  |  |  | 3.5
